Assay results as given in PMC7714403 (JCI Insight, 2020).

Legend:
[1] = system: HS5 human MSCs; test: MTT viability assay of stromal cells; type: cell-based
Experimental: Cell viability of primary samples
HS5-GFP human bone marrow stromal cells were plated and cultured for 72 hours to near confluence.
MOLM13 cells were then seeded onto HS5-GFP cells to establish a co-culture. Twenty-four hours later, cells were treated with increasing concentrations of drug for an additional 72 hours. MOLM13 and HS5-GFP cells were then separated and MTT assay s were performed for cell viability assessment of each cell population.
For murine or human primary AML cells, 100,000 cells/well were plated in a 96-well plate and treated with increasing concentrations of drug. Cell viability, via trypan blue, was measured every 24 hours. If the viability fell below 50% or at 72 hours of treatment, whichever came earlier, cell viability of each plate was measured via CellTiter-Glo. Primary human AML cells were obtained from the OSUCCC Leukemia Tissue Bank Shared […]
For primary human fibroblasts, cells were plated at 10,000 cells/well in a 96-well plate and cultured for 24 hours. After 24 hours, cells were treated with drug for 72 hours. A MTT assay was performed to assess cell […]
Primary AML samples were analyzed by targeted gene sequencing of 80 genes, as previously described (1). Samples were pooled and analyzed on a MiSeq system using the Illuminia MiSeq Reagent Kit v3. Ill umina Isis Banded Smith Waterman aligner and hg19 genome were used to align the sequences. […]

[2] = target: PIK3C2B (Homo sapiens, UniProt O00750); test: KiNativ, OCI cells live cell; type: cell-based; details: 2 h, labeling site ATP, peptide […]
PIK3C2B, sequence (O00750 whole entry): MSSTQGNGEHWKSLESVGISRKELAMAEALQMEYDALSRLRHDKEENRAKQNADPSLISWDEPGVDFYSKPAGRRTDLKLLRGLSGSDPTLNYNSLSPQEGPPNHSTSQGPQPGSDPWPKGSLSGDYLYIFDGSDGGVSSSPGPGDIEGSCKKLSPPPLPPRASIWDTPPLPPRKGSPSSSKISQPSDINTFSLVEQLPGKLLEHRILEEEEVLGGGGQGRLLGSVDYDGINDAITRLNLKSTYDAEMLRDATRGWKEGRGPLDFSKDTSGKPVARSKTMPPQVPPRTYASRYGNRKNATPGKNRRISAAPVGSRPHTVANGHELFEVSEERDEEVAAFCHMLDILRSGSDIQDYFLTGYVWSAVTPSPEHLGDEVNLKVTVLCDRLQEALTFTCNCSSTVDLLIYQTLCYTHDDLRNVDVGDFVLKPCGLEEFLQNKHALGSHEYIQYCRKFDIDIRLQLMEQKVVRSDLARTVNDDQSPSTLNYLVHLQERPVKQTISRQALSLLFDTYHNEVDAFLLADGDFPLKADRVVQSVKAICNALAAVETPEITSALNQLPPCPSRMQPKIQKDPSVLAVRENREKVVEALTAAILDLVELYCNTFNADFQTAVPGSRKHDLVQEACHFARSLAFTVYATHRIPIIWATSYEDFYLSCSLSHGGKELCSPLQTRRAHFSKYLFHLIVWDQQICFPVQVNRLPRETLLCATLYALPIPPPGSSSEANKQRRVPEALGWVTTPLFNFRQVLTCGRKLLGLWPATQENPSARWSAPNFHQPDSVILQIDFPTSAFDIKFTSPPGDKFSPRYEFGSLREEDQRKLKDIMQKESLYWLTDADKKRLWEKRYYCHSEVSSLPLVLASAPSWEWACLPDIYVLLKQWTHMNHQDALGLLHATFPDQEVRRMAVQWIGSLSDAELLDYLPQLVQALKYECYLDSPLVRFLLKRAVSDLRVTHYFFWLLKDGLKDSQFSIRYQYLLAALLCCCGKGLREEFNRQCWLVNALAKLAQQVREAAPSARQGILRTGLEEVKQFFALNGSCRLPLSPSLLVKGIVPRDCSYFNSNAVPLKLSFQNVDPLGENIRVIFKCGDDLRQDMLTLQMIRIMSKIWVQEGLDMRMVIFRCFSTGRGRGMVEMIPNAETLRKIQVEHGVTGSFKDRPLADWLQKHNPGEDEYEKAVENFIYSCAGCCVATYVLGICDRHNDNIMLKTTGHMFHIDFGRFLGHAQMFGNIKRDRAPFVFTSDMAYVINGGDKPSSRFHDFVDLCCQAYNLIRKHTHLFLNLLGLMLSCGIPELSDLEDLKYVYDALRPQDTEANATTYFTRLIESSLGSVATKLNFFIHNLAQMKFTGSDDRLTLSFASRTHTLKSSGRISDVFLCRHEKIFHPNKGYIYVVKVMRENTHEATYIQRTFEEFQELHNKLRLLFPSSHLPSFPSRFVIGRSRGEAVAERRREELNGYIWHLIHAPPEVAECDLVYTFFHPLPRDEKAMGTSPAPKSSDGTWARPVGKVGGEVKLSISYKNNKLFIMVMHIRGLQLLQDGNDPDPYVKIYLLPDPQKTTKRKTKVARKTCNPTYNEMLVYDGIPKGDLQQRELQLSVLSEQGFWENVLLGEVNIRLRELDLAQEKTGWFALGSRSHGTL

[3] = system: Ba/F3-FLT3-ITD/F691L-GFP+ cells; test: Ba/F3 FLT3-ITD/F691L-GFP+ xenograft model; type: in vivo, NSG mice; details: 60 mg/kg once daily, after 13 days of treatment
Experimental: Engraftment and growth of leukemic cells were monitored by noninvasive bioluminescence imaging in cell line xenograft models, as previously done ([47]). Details on the cell engraftment and dosing in mouse models are provided in the Supplemental Methods.
Luc+ or MOLM13-Res -Luc+ cells, 0.5 million OCI-AML3 -Luc+ cells, and 10,000 Ba/F3-FLT3-ITD/F691L-GFP+ cells. Weekly tumor engraftment of cell line xenograft models were assessed after injection of D-luciferin (150mg/kg i.p.; Gold Biotechnology, Inc, St. Louis, MO) on Xenogen IVIS-200 imaging system (Perkin Elmer, Waltham, MA) or GFP monitoring by peripheral blood via BD LSR II flow cytometer (BD Biosciences, San Jose, CA). Signal intensity was analyzed using Living Image Software (PerkinElmer) or FlowJo v10.0.08 software (FlowJo, LLC, Ashland, OR). Mice were randomized to treatment groups based on signal intensity and leukemia burden. Drug treatments were started on days 3, 7, or 13 after cell injection in OCI-AML3, MOLM13, and MOLM13-Res xenografts, respectively. In murine AML transplantation model, 1 million FLT3-ITD+/-/IDH2-R140Q+/- splenocytes (in house colony) were intravenously injected in male NSG mice. On day 7, mice were started on drug treatments. All mice were observed daily and humanely euthanized when showing signs of progressive disease including, hind limb paralysis, weight loss more than 20%, and lethargy. […]

[4] = target: T1, MSK1 domain1 (Homo sapiens, UniProt O75582); test: KiNativ, OCI cells live cell; type: cell-based; details: 2 h, labeling site Lys2, peptide […]
T1 construct: MSK1 domain1
T1 sequence (O75582 whole entry, the tested form may be a part): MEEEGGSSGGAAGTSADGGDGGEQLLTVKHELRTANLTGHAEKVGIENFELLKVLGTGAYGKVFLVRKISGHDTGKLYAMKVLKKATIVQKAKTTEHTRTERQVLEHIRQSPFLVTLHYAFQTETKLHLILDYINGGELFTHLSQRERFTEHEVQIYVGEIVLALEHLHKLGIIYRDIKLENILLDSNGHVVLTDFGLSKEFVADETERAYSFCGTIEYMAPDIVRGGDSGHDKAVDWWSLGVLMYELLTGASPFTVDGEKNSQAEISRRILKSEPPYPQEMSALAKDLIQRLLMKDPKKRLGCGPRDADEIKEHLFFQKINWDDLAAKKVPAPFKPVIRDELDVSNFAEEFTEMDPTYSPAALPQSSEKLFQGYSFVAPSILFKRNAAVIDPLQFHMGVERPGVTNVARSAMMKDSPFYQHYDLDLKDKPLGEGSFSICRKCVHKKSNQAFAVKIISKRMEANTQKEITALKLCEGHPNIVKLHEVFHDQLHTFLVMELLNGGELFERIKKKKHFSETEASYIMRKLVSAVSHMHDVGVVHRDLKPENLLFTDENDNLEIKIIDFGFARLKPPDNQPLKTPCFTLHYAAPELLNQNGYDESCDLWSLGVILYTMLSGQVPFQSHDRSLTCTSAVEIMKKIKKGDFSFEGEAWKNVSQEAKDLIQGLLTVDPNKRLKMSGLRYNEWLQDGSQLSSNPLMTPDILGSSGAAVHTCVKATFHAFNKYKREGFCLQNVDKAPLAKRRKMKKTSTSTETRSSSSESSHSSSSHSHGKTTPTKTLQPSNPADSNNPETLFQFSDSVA

[5] = target: BARK1 (Homo sapiens, UniProt P25098); test: KiNativ, OCI cells live cell; type: cell-based; details: 2 h, labeling site Lys2, peptide […]
BARK1, sequence (P25098 whole entry): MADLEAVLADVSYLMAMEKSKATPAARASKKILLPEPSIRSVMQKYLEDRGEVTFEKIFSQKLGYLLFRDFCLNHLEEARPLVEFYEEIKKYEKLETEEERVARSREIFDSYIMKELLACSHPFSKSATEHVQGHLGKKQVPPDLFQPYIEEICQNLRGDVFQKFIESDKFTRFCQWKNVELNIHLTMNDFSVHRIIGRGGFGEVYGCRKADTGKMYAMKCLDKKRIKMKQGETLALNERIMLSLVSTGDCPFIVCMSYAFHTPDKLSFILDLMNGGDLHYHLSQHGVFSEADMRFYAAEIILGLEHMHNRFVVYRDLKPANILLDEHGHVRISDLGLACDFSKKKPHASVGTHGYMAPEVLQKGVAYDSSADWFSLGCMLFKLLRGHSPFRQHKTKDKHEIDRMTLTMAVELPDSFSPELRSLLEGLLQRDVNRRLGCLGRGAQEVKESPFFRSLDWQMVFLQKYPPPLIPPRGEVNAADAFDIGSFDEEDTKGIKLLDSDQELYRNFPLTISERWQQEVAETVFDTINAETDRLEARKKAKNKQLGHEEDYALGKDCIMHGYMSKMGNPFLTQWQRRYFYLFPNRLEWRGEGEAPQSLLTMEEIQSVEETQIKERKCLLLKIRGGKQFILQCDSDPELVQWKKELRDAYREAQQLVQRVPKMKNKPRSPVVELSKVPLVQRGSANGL

[6] = target: Wee1 (Homo sapiens, UniProt P30291); test: KiNativ, OCI cells live cell; type: cell-based; details: 2 h, labeling site Lys2, peptide […]
Wee1, sequence (P30291 whole entry): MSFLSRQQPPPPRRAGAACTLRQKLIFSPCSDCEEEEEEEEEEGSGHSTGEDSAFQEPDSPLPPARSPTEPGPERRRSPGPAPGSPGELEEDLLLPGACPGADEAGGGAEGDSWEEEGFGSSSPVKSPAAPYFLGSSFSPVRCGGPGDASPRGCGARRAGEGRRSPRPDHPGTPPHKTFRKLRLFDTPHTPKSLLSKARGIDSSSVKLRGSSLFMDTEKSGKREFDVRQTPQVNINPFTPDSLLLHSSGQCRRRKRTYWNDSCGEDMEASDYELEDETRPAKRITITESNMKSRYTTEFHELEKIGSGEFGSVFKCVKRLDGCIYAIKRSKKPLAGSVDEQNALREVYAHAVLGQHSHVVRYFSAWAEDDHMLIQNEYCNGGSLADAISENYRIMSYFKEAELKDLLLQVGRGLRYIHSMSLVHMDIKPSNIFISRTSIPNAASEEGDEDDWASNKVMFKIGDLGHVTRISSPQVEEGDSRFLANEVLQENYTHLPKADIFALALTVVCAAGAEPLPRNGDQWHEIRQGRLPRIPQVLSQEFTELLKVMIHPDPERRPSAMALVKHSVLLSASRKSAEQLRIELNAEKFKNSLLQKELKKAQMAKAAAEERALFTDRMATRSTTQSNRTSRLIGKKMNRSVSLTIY

[7] = target: T2, MASTL (Homo sapiens, UniProt Q96GX5); test: KiNativ, OCI cells live cell; type: cell-based
T2 sequence (Q96GX5 1-879): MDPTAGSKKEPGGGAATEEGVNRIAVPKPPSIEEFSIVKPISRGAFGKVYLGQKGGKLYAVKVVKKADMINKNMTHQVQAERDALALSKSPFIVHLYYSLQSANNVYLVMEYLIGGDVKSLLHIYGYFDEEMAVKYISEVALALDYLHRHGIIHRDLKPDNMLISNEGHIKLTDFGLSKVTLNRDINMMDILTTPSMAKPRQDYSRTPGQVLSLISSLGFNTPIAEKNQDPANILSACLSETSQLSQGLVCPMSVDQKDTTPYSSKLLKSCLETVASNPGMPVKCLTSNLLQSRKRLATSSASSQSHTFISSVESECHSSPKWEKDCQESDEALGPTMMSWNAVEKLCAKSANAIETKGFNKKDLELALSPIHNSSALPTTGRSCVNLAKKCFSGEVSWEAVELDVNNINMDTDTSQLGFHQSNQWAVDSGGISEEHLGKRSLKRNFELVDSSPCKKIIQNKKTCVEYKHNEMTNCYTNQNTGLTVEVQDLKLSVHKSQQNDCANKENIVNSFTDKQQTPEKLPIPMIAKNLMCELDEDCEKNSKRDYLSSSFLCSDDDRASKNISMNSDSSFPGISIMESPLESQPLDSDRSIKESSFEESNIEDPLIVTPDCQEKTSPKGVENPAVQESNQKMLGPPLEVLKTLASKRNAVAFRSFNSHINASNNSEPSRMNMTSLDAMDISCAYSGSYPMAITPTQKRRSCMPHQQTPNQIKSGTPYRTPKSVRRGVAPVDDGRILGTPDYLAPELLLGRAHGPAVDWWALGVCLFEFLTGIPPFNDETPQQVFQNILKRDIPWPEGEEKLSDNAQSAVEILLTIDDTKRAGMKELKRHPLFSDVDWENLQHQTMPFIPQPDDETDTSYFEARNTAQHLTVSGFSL

Question: For `CN1CCN(Cc2ccc(Nc3ncc(Cl)c(Nc4ccccc4S(=O)(=O)N(C)C)n3)cc2)CC1` [TP-0903], which “Concentrations not cytotoxic to HS5 human MSCs” value [1] is on record?
Answer: Its value is < 250 nM.

Question: What about the inhibition at 0.1 µM [2] of the same molecule?
Answer: The inhibition at 0.1 µM was 0.282%.

Question: And the “Peripheral blood GFP signal compared with gilteritinib” value [3]?
Answer: Its value is “significantly lower”.

Question: What about the inhibition at 0.1 µM [4] of the same molecule?
Answer: The inhibition at 0.1 µM was 8.3%.

Question: What about the inhibition at 0.1 µM [5] of the same molecule?
Answer: Its inhibition at 0.1 µM is -3.8%.

Question: What about the inhibition at 0.1 µM [6] of the same molecule?
Answer: The inhibition at 0.1 µM was 67.8%.

Question: What about the Inhibition ([7]; labeling site ATP Loop, peptide GAFGKVYLGQK) of the same molecule?
Answer: The Inhibition was 6.7%.

Question: What about the Inhibition ([7]; labeling site Lys1, peptide LYAVKVVK) of the same molecule?
Answer: Its Inhibition is 34.3%.
